Among the data in article PMC8405660, “Detection of Borrelia burgdorferi antigens in tissues and plasma during early infection in a mouse model” (Scientific Reports, 2021) are Kd values, retold here.

Where no end group is shown, it is not given here.

In this assay the target is C10-11 mAb. Put plainly: Competitive ELISA with AChE-labeled C10 peptide on C10-11 mAb. The arrangement: species or system mouse. To be noted: read-out: Apparent dissociation constant (Kapp) of C10-11 mAb; concentration of competitor inducing 50% inhibition of binding of AChE-labeled C10 peptide (0.5 EU/mL); mAb 1 ng/mL, overnight at 4 °C; NB means no binding. How it is done:
The apparent affinity of anti-C10 peptide mAbs for different variants of C10 peptides and recombinant OspC was measured by competitive ELISA, using goat anti-mouse antibodies (Jackson ImmunoResearch, Cambridgeshire, United Kingdom) coated on the wells of a microtiter plate. A mix of anti-C10 peptide mAb (1 ng/mL), AChE-labeled C10 peptide (0.5 EU/mL) and different concentrations of competitor peptide or recombinant OspC were reacted overnight in the wells at 4 °C.
Turning to PVVAETPKKP [compound 5], the Kd is 0.179 µM.
Take PVVAESPKKT [compound 3]: the Kd worked out at 0.06 µM.
“PVVAESPKKP [compound 1, reference compound]”: the Kd worked out at 0.033 µM.
PVVAESQKKP [compound 7]: the Kd is 0.17 µM.
Then PIVAESPKKP [compound 10], with 0.1 µM; and PVVAEAPKKP [compound 2], with 0.146 µM.
On to PVMAESPKKP [compound 9], for which the Kd was 0.125 µM.
